Measurements published in patent US10526581B2, “Modulation of cardiac stem-progenitor cell differentiation, assays and uses thereof” (priority 2013, dated 2020).

Experiments:
[1] = test system: adult rat myocardium; experiment: diffuse myocardial damage by single ISO injection in rats: eCSC activation; format: in vivo
Text: Adult c-kit^poseCSCs are scattered throughout the myocardium with higher density within the atria and the ventricular apex (10). When the apical myocardium is severely injured by catecholamine overdrives, induced through Isoproterenol bolus injection, c-kit^poseCSCs are rapidly activated and respond to damage by increasing their number (16) and differentiate into cardiomyocyte lineage (Unpublished data). The same growth response by these cells is detectable in the ischemic myocardium (17) as well as in hearts with pathologic or physiological overload (18,19). During embryonic life, a progressive process of cell specification or commitment, precisely regulated in space and time, determine cardiac muscle cell creation from cardiac progenitor cells (20). In the latter phenomenon, “cell-autonomous” decisions (intrinsic to a cell) are accompanied by “cell-non-autonomous” events, which entail extracellular cardiomyogenic instructive molecules known as morphogens or cardiopoietic growth factors (cGFs) (8,9). […] The mRNA levels for different cGFs and their detection by immunohistochemistry correlated with the levels of the corresponding protein (FIG. 4).
Diffuse myocardial damage was induced by a single injection (s.c.) of isoproterenol (ISO) to rats (5 mg kg^−1) or mice (200 mg kg^−1). […] Mer-CreMer mice were kindly provided by Drs. Tammie Bishop and Ludwig Thierfelder (see below). ZEG and RYP mice were purchased at Jackson Laboratory.
To follow c-kit^poseCSC physiological response to cardiac injury, we induced severe diffuse myocardial damage in adult rats with a single high dose of isoproterenol (ISO) (Ellison et al., 2007b). New cell formation was monitored with BrdU labeling in vivo (Waring et al., 2012). In the presence of a patent coronary circulation, ISO produces a Takotsubo-like cardiomyopathy (Akashi et al., 2008) with both diffuse sub-endocardial and apical CM death. This acute insult kills 8-10% of the LV CMs and results in overt acute heart failure (Ellison et al., 2007b). […] While in the normal myocardium (CTRL) most c-kit^poseCSCs are quiescent (>90% BrdU^neg and Ki67^neg), after ISO damage a high fraction enters the cell cycle (FIG. 14A-C and FIG. 21). At day 3, ˜88% are BrdU^pos (FIG. 14C), leading to an ˜8-fold increase in eCSC number, which decreases thereafter but remains above CTRL for up to 28 days (FIG. 14A).
The expansion of the eCSC pool in response to CM loss by ISO damage was followed by their commitment to myocardial cell lineages. […]

[2] = test system: rats with ISO+5-FU cardiomyopathy; experiment: echocardiography after tail vein cell injection in ISO+5-FU cardiomyopathy; format: in vivo, rat; settings: (84 d) 3 months

**Q.** `CC(C)NCC(O)c1ccc(O)c(O)c1` (centres unmarked) [ISO, isoproterenol] was tested. Which “expression of cardiopoietic growth factors in the myocardium” value ([1]; after ISO injection) did it give?
**A.** Its value is “significantly increased expression”.

**Q.** What about the “increase of c-kit^posNkx2.5^posGATA4^pos cells over CTRL” value ([1]; by day 3 after ISO) of the same compound?
**A.** The value was roughly 4 fold.

**Q.** And the “BrdU^pos c-kit^pos eCSCs” value ([1]; day 3 after ISO)?
**A.** The value was roughly 88%.

**Q.** What about the “increase in eCSC number” value ([1]; day 3 after ISO) of the same compound?
**A.** The value was roughly 8 fold.

**Q.** And the EF [2]?
**A.** The EF was 88.6 ± 2.56%.

**Q.** What about the FS [2] of the same compound?
**A.** Its FS is 51.7 ± 3.7%.

**Q.** What about the LVIDd [2] of the same compound?
**A.** Its LVIDd is 5.25 ± 0.42 mm.

**Q.** And the LVIDs [2]?
**A.** The LVIDs was 2.53 ± 0.31 mm.
